# Reference: US20100015620A1, “CANCER-LINKED GENES AS BIOMARKERS TO MONITOR RESPONSE TO IMPDH INHIBITORS” (priority 2006, published 2010)
# What was measured:
# [1] = test system: human peripheral lymphocytes stimulated with either B-cell or T-cell mitogens; conditions: cited from earlier work
# [2] = test system: HT-29, K-562 and KG-1 cells; test: GTP pool depletion and repletion, and cell cycle block, in cell lines; type: cell-based, human
# Method: The present identification of relevant biomarkers was cognizant of the need to capture genes that move with respect to relevant clinical experiments. For example, IMPDH inhibition results in the cell cycle halting at the G1 border. […] Concentration depletion of GTP was measured in HT-29, K-562 and KG-1 cells. DMSO was used as control. […] For example, PDE7A and RRM2 were deregulated only on GTP repletion (which occurred within 90 minutes after drug removal). Thus, the present experiments have correlated gene involvement with the real biological endpoint for IMPDH inhibition.
# [3] = molecular target: both IMPDH isozymes; conditions: cited from earlier work
structure (smiles),measurement,setting,value
CC[C@H](CC#N)OC(=O)N[C@@H](C)c1cccc(NC(=O)Nc2ccc(-c3cnco3)c(OC)c2)c1 [AVN-944],IC50,[1],20 to 100 nM
same,Effect on GTP pools,"[2]; HT-29, K-562 and KG-1 cells, DMSO control",depleted GTP pools
same,Time to GTP repletion after drug removal,[2]; after drug removal,≤ 90 min
same,Effect on cell cycle,[2]; at concentrations of AVN-944 that depleted GTP pools,S phase cell cycle block
same,Ki,[3],7 to 10 nM
